In patent US9353072B2, “Antimicrobial substituted thiazoles and methods of use” (Purdue Research Foundation, priority 2012, dated 2016):
Converted amounts (≈) assume the structure as drawn. Read-outs that look alike come from different tables or passages of the source.

Assays:
[1] = tested on: MRSA ATCC 43300; assay: MIC/MBC broth microdilution, MRSA ATCC 43300; format: cell-based, Staphylococcus aureus; conditions: Staphylococcus aureus
Procedure: (§1) Determination of minimum inhibitory concentration (MIC). The MICs of the lead thiazole compound (compound 1a) and nine derivatives tested against all 18 MRSA strains were determined, in triplicate samples, using the broth microdilution method in accordance with the recommendations contained in the CLSI guidelines.

[2] = tested on: MRSA ATCC 700699 (NRS1, VISA); assay: MIC/MBC broth microdilution, NRS1 (ATCC 700699); format: cell-based; conditions: Staphylococcus aureus
Procedure: as §1

[3] = tested on: VISA HIP07256 (NRS19); assay: MIC/MBC broth microdilution, NRS19 (VISA HIP07256); format: cell-based; conditions: Staphylococcus aureus
Procedure: as §1

[4] = tested on: VISA LIM 3 (NRS37); assay: MIC/MBC broth microdilution, NRS37 (VISA LIM 3); format: cell-based; conditions: Staphylococcus aureus
Procedure: as §1

[5] = tested on: NRS107; assay: MIC/MBC broth microdilution, NRS107; format: cell-based; conditions: Staphylococcus aureus
Procedure: as §1

[6] = tested on: NRS119; assay: MIC/MBC broth microdilution, NRS119; format: cell-based; conditions: Staphylococcus aureus
Procedure: as §1

[7] = tested on: MRSA USA400 (NRS123); assay: MIC/MBC broth microdilution, NRS123 (USA400); format: cell-based; conditions: Staphylococcus aureus
Procedure: as §1

[8] = tested on: NRS194; assay: MIC/MBC broth microdilution, NRS194; format: cell-based; conditions: Staphylococcus aureus
Procedure: as §1

[9] = tested on: MRSA NRS384 (USA300); assay: MIC/MBC broth microdilution, NRS384 (USA300); format: cell-based; conditions: Staphylococcus aureus
Procedure: as §1

[10] = tested on: MRSA USA500 (NRS385); assay: MIC/MBC broth microdilution, NRS385 (USA500); format: cell-based; conditions: Staphylococcus aureus
Procedure: as §1

[11] = tested on: VRSA (VRS10); assay: MIC/MBC broth microdilution, VRSA (VRS10); format: cell-based, Staphylococcus aureus; conditions: Staphylococcus aureus, VRSA; for MBC: read-out: Minimum Bactericidal Concentration; for MIC: read-out: Minimum Inhibitory Concentration
Procedure: as §1

[12] = tested on: MRSA USA100; assay: MIC broth microdilution, MRSA USA100; format: cell-based; conditions: Staphylococcus aureus, read-out: Minimum Inhibitory Concentration
Procedure: as §1

[13] = tested on: MRSA USA200; assay: MIC broth microdilution, MRSA USA200; format: cell-based; conditions: Staphylococcus aureus, read-out: Minimum Inhibitory Concentration
Procedure: as §1

[14] = tested on: MRSA (USA300); assay: Time-kill assay; format: cell-based, Staphylococcus aureus; conditions: 3.0×MIC; MRSA (USA300)
Procedure: Time-kill assay. […] Viable CFU/mL was determined by serial dilution and plating on trypticase soy agar (TSA) (Becton, Dickinson and Company, Sparks, Md., USA) plates after 0, 2, 4, 6, 8, 10, and 12 hours of incubation at 37° C. to identify the time required to reduce the bacterial cell count by 3-log10.

[15] = read-out: Minimum Bactericidal Concentration
[16] = read-out: Minimum Inhibitory Concentration
[17] = NRS 119 / VISA, read-out: Minimum Bactericidal Concentration
[18] = NRS 119 / VISA, read-out: Minimum Inhibitory Concentration

Compound | MBC [1] | MIC [1] | MIC ([1]; 20 h) | MBC [1, 15] | MIC [1, 16] | MBC [2] | MBC [2, 15] | MIC [2, 16] | MBC [3] | MIC [3] | MBC [4] | MBC [5] | MIC [5] | MBC ([6]; NRS119) | MIC ([6]; NRS119) | MBC [6, 17] | MIC [6, 18] | MBC [7] | MIC [7] | MBC [8] | further results
C/C(=N\NC(=N)N)c1sc(-c2cccc(F)c2)nc1C [Compound M16, (E)-2-(1-(2-(3-fluorophenyl)-4-methylthiazol-5-yl)ethylidene)hydrazinecarboximidamide] | 128 µM (≈ 37.3 µg/mL) | 128 µM (≈ 37.3 µg/mL) | 32 µM (≈ 9.32 µg/mL) | 64 µM (≈ 18.6 µg/mL) | 32 µM (≈ 9.32 µg/mL) | 128 µM (≈ 37.3 µg/mL) | 64 µM (≈ 18.6 µg/mL) | 32 µM (≈ 9.32 µg/mL) | 128 µM (≈ 37.3 µg/mL) | 128 µM (≈ 37.3 µg/mL) | 128 µM (≈ 37.3 µg/mL) | 128 µM (≈ 37.3 µg/mL) | 128 µM (≈ 37.3 µg/mL) | 128 µM (≈ 37.3 µg/mL) | 128 µM | 64 µM (≈ 18.6 µg/mL) | 64 µM | 128 µM (≈ 37.3 µg/mL) | 128 µM (≈ 37.3 µg/mL) | 128 µM (≈ 37.3 µg/mL) | MIC ([2]; 20 h): 128 µM (≈ 37.3 µg/mL); MIC [4]: 128 µM (≈ 37.3 µg/mL); MIC [8]: 128 µM (≈ 37.3 µg/mL); MBC [9]: 128 µM (≈ 37.3 µg/mL); MIC [9]: 128 µM (≈ 37.3 µg/mL); MBC [10]: 128 µM (≈ 37.3 µg/mL); MIC [10]: 128 µM (≈ 37.3 µg/mL); MBC [11]: 128 µM (≈ 37.3 µg/mL); MIC [11]: 32 µM (≈ 9.32 µg/mL)
CCCCCCCC#Cc1ccc(-c2nc(C)c(/C(C)=N/NC(=N)N)s2)cc1 [Compound M17, (E)-2-(1-(4-methyl-2-(4-(non-1-yn-1-yl)phenyl)thiazol-5-yl)ethylidene) hydrazinecarboximidamide] | – | – | 32 µM (≈ 12.7 µg/mL) | 64 µM (≈ 25.3 µg/mL) | 32 µM (≈ 12.7 µg/mL) | – | 32 µM (≈ 12.7 µg/mL) | 16 µM (≈ 6.33 µg/mL) | – | – | – | – | – | – | – | 64 µM (≈ 25.3 µg/mL) | 32 µM | – | – | – | MBC [11]: 64 µM (≈ 25.3 µg/mL); MIC [11]: 32 µM (≈ 12.7 µg/mL)
CCCCc1ccc(-c2nc(C)c(/C(N)=N\O)s2)cc1 [Compound R7, (E)-2-(4-butylphenyl)-N′-hydroxy-4-methylthiazole-5-carboximidamide] | – | – | – | – | – | – | – | – | – | – | – | – | – | – | – | – | – | – | – | – | MIC ([1]; Table 8, ATCC 43300, read-out: MIC): > 128 µM; MIC ([2]; Table 8, NRS1 (VISA), triplicates, 20 hours, read-out: MIC): > 128 µM; MIC ([3]; Table 8, NRS19 (VISA), read-out: MIC): > 128 µM; MIC ([4]; Table 8, NRS37 (VISA), read-out: MIC): > 128 µM; MIC ([5]; Table 8, read-out: MIC): > 128 µM; MIC ([6]; Table 8, NRS119, read-out: MIC): > 128 µM; MIC ([7]; Table 8, NRS123, read-out: MIC): > 128 µM; MIC ([8]; Table 8, read-out: MIC): > 128 µM; MIC ([9]; Table 5, MRSA NRS384 (USA300), 128 μM down to 1.0 μM, 37° C., 19 hours, read-out: Minimum Inhibitory Concentration): > 128 µM; MIC ([9]; Table 8, NRS384, read-out: MIC): > 128 µM; MIC ([10]; Table 8, NRS385, read-out: MIC): > 128 µM
CN[C@H](CC(C)C)C(=O)N[C@H]1C(=O)N[C@@H](CC(N)=O)C(=O)N[C@H]2C(=O)N[C@H]3C(=O)N[C@H](C(=O)N[C@H](C(=O)O)c4cc(O)cc(O)c4-c4cc3ccc4O)[C@H](O)c3ccc(c(Cl)c3)Oc3cc2cc(c3O[C@@H]2O[C@H](CO)[C@@H](O)[C@H](O)[C@H]2O[C@H]2C[C@](C)(N)[C@H](O)[C@H](C)O2)Oc2ccc(cc2Cl)[C@H]1O [Vancomycin, reference compound] | 0.5 µM (≈ 0.725 µg/mL) | 0.5 µM (≈ 0.725 µg/mL) | – | – | < 1 µM | 2 µM (≈ 2.9 µg/mL) | – | – | < 1 µM | < 1 µM | 2 µM (≈ 2.9 µg/mL) | < 1 µM | < 1 µM | < 1 µM | < 1 µM | – | < 1 µM | 0.5 µM (≈ 0.725 µg/mL) | 0.5 µM (≈ 0.725 µg/mL) | 0.5 µM (≈ 0.725 µg/mL) | MIC ([6]; NRS119, read-out: Minimum Inhibitory Concentration): 1.4 µg/mL; MIC [8]: 0.5 µM (≈ 0.725 µg/mL); MIC [12]: 1.4 µg/mL (≈ 0.966 µM); MIC [13]: 0.4 µg/mL (≈ 0.276 µM); MBC [9]: 0.5 µM (≈ 0.725 µg/mL); MIC [9]: 0.5 µM (≈ 0.725 µg/mL); MBC [10]: 0.5 µM (≈ 0.725 µg/mL); MIC [10]: 0.5 µM (≈ 0.725 µg/mL); time to reduce the number of CFU by 3-log10 [14]: > 12 hours
